Reference: US5594009A, “Fused pyrrolocarbazoles” (priority 1995, dated 1997)

Assays:
[1] = system: choline acetyltransferase (ChAT) activity in dissociated rat embryonic spinal cord culture; experiment: Spinal Cord ChAT Activity Assay; assay type: cell-based; conditions: ChAT measured after 48 hours
[2] = system: ChAT activity of basal forebrain cultures; experiment: Basal Forebrain ChAT Activity Assay; assay type: cell-based, rat
Procedure, shortened: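 Basal forebrain neurons from E17–18 rat embryos were Dispase-dissociated and plated at 5×10^4 cells/well on poly-ornithine/laminin. Cultures were kept in serum-free N2 medium with 0.05% BSA at 37° C. ChAT activity was measured 5 days after plating as the read-out for compound-induced increase.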

[3] = system: chick dorsal root ganglion neurons; experiment: DRG Neurite Outgrowth Assay; assay type: cell-based; conditions: compound concentration 200 nM; 48 hours
Procedure: Fused pyrrolocarbazoles promoted nerve fiber (i.e., neurite) outgrowth in explant (i.e., primary) cultures of chick dorsal root ganglion neurons. Dorsal root ganglion (i.e., DRG) nerve fiber outgrowth was increased when a fused pyrrolocarbazole was added to cultures at a concentration of 200 nM (Table IV). Control cultures consisted of: 1) no added NGF or fused pyrrolocarbazole ("Control"), or 2) 50 ng/ml NGF, a neurotrophin known to promote neurite extension in DRG cultures ("NGF").
Methods: Dorsal root ganglia were dissected from chick embryos (embryonic day 9) and individual ganglia were plated on poly-1-ornithine and laminin coated plates. A fused pyrrolocarbazole or 50ng/ml NGF was each added to independent cultures after allowing a 1-2 hour cell attachment period. Explants were cultured for 48 hours in serum-free N2 medium supplemented with 0.05% BSA (Bottenstein et al., PNAS USA 76:514-517 (1979)). Cultures were maintained at 37° C. in a humidified atmosphere, 5% CO2 /95% air. Nerve fiber outgrowth was assessed by the density and length of neurites. It should be apparent to those skilled in the art that neurite extension assays are semi-quantitative and involve a visual comparison between control and experimental neuronal cell cultures (Alberts et al., Molecular Biology of the Cell, 2ed. Garland Publishing, Inc., New York (1989).

[4] = system: NT-3 induced ChAT activity of rat basal forebrain cultures; experiment: Enhancement of Neurotrophin (NT-3) Activity Assay, ChAT activity in basal forebrain cultures; assay type: cell-based
Procedure: Fused pyrrolocarbazoles were tested for the ability to enhance the activity of the neurotrophin NT-3 in basal forebrain cultures. ChAT activity was assayed as a measure of cholinergic neuron function and survival. The concentration of NT-3 (100 ng/ml) used in these experiments increased ChAT activity over control cultures (untreated with NT-3 or a fused pyrrolocarbazole) by 140%.
Methods. Basal forebrain cultures were prepared from embryonic rats (embryonic day 17) and dissociated with the neutral protease Dispase™. Cells were plated at a density of 4×10^5 cells/cm^2 on poly-1-ornithine coated plastic tissue culture plates in a mixture of DMEM and F12 media (50/50 v/v GIBCO) supplemented with 5% horse serum and 0.5% fetal bovine serum. Cells were incubated at 37° C. in a humidified atmosphere of 5% CO2 /95% air for 5 days. ChAT activity was measured as described in Example III(A)(1).
Recombinant rat NT-3 was produced by using a recombinant baculovirus expression vector under the control of the polyhedron virus promoter (Fraser, In Vitro Cell. and Dev. Biol. 25:225-235 (1989)). The plasmid pXM-NT3 (Hallbook et al., Neuron 6:845-858 (1991), which contained the rat NT-3 cDNA clone, was provided by Dr. Ira Black (University of Medicine and Dentistry of New Jersey, Piscataway, N.J.). NT-3 cDNA was subcloned into the transfer vector pVL1392 (In Vitrogen Corp., San Diego, Calif.) for recombinant virus production. Recombinant baculovirus was produced as described in Meyer et al. (Meyer at al., J. Neurochem 62:825-833 (1994)).

protein kinase C = experiment: PKC Activity Inhibition Assay; assay type: biochemical
Procedure: Fused pyrrolocarbazoles inhibited the activity of protein kinase C (Table VI). The protein kinase C assay has been disclosed (Murakata et al., U.S. Pat. No. 4,923,986; Kikkawa et al., J. Biol. Chem. 257:13341-13348 (1982)). The assay was performed with several concentrations of fused pyrrolocarbazoles. The concentration at which protein kinase C was 50% inhibited (IC50) was determined.

trkA tyrosine kinase = trkA tyrosine kinase (Homo sapiens, UniProt P04629); experiment: trkA Tyrosine Kinase Activity Inhibition Assay (ELISA); assay type: biochemical; conditions: 16 μM ATP, 37° C., 15 min; read-out: INHIBITION OF trkA KINASE IC50
Procedure: These compounds were then tested for the ability to inhibit substrate phosphorylation by the trkA tyrosine kinase.
Plates were washed three times with TBST, followed by two washes with TBS (TBST sans Tween-20). Fused pyrrolocarbazoles were then added at various concentrations to a reaction mixture (50 mM HEPES, pH 7.4, 5 mM MnCl2, 5 mM MgCl2, 140 mM NaCl, 16 μM ATP, and 15 ng trkA in a total volume of 1001 μL.). As a negative control, 100 mM EDTA was included in the reaction solution. The plates were then incubated at 37° C. for 15 min. The detection antibody, monoclonal anti-phosphotyrosine antibody (UBI), was added at a dilution of 1:2000 in TBST, and incubated for 1 hour at 37° C. Plates were then washed three times with TBST, followed by a 1 hour incubation at 37° C. with alkaline phosphatase-labeled goat anti-mouse IgG (1:2000 in TBST (Bio-Rad)). After washing three times with TBST followed by two washes with TBS, a colored product was produced by using NADPH as substrate for alkaline phosphatase, and the coupled reactions of diaphorase and alcohol dehydrogenase (GIBCO-BRL ELISA amplification system). The colored product was read at 490 nm in a microplate reader (Biotek).

protein kinase C ("PKC") = conditions: cited from earlier work
trk tyrosine kinase = conditions: cited from earlier work
[5] = system: transcription of IFNα genes; conditions: not associated with the inhibition of protein kinase C; cited from earlier work
human keratinocytes = conditions: cited from earlier work

Chain of trkA tyrosine kinase (P04629 33-796): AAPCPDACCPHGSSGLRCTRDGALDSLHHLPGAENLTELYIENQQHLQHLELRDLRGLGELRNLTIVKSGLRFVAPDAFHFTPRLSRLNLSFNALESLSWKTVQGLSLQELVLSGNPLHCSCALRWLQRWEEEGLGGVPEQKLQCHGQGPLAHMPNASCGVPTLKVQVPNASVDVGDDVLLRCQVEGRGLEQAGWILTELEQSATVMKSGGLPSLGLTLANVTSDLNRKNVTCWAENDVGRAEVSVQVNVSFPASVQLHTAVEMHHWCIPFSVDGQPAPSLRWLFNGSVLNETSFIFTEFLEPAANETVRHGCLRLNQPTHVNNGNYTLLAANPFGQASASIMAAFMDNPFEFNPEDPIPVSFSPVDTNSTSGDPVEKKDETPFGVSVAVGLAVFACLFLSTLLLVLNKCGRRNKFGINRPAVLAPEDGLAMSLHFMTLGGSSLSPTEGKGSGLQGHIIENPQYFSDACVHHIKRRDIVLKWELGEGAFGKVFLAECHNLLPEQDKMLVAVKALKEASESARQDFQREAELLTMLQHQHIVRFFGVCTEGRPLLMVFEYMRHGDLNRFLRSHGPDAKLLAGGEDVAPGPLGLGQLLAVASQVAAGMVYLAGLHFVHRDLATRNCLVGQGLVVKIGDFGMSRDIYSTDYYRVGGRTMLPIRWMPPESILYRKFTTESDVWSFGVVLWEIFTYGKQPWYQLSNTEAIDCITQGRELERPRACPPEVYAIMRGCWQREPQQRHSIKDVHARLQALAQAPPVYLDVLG

For `O=C1NC(=O)c2c1c1c(c3[nH]c4ccccc4c23)Cc2ccccc2-1` [Compound I-1, 6H, 12H, 13H-Indeno[2,3-a]pyrrolo[3,4-c]carbazole-5,7(5H, 7H))-dione], the “Spinal Cord ChAT Activity, % of Control, untreated cultures” value [1] was 148 % of Control, the “ChAT Activity (% of Control)” value ([2]; 100 nM) was “inactive” and the “ChAT Activity (% of Control)” value ([2]; 250 nM) was “inactive”. For the same compound, the “ChAT Activity (% of Control)” value ([2]; 500 nM) was “inactive”, the “DRG Neurite Outgrowth” value [3] was “modest number of neurites” and the “ChAT activity in the absence of NT-3” value ([4]; compound added alone to basal forebrain neurons, no NT-3) was “no effect on ChAT activity”. For the same compound, the “ChAT activity in the presence of NT-3” value ([4]; with 100 ng/ml NT-3) was “enhanced ChAT activity”, the IC50 (protein kinase C) was 70 nM and the IC50 (trkA tyrosine kinase) was over 1000 nM.

In the case of `COC(=O)[C@@]1(O)C[C@H]2O[C@]1(C)n1c3ccccc3c3c4c(c5c6ccccc6n2c5c31)C(=O)NC4` [Compound K-252a], the “inhibition of protein kinase C” value (protein kinase C ("PKC")) is listed as “inhibitor”, the “inhibition of trk tyrosine kinase” value (trk tyrosine kinase) is listed as “inhibitor” and the “inhibition of transcription of IFNα genes” value [5] is listed as “inhibit the transcription of IFNα genes”. For the same compound, the “NGF-stimulated proliferation of human keratinocytes” value (human keratinocytes) was “prevents such proliferation”.

For “NGF: a neurotrophin known to promote neurite extension in DRG cultures”, the “proliferation of human keratinocytes” value (human keratinocytes) is given as “stimulates the proliferation of human keratinocytes in culture”.
